Reference: the supplement of paper PMC5412046
Structures can show the parent of a compound that is named as a salt.

Legend:
SB.msgc-1 [1] = assay: viability at highest tested concentration (MAXR) relative to DMSO; higher = less cytotoxic; settings: SB.msgc-1 (sporadic gastric cancer)
Summary of the method: (§1)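 Gastric cancer cells derived from hereditary or sporadic patients were treated for 48 h with compound at 11 threefold dilutions, with the top concentration recorded per compound. Viability was then read by CellTiter-Glo luminescence. Data are viability normalised to DMSO, at the highest concentration or as trapezoidal area under the curve.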

SB.mhdgc-1 [2] = assay: as above; settings: SB.mhdgc-1 (hereditary c.1380delA CDH1 gastric cancer)
Summary of the method: as §1

SB.msgc-1 [3] = assay: area under the dose-response curve of % viability (trapezoidal, 11 doses) (% viability x log10 concentration); higher = less cytotoxic; settings: SB.msgc-1 (sporadic gastric cancer)
Summary of the method: as §1

SB.mhdgc-1 [4] = assay: as above; settings: SB.mhdgc-1 (hereditary c.1380delA CDH1 gastric cancer)
Summary of the method: as §1

| Structure (SMILES) | viability (SB.msgc-1 [1]) | viability (SB.mhdgc-1 [2]) | area under the dose-response curve (SB.msgc-1 [3]) | area under the dose-response curve (SB.mhdgc-1 [4]) |
| --- | --- | --- | --- | --- |
| C[C@H](NC(=O)c1sccc1OCc1ccc(Cl)cc1)c1ccccc1 (top concentration 46.0829 µM) | 43.3% | 45.7% | 491 | 435 |
| CC1(C)[C@@H](O)CC[C@@]2(C)[C@H]1CC[C@]3(C)[C@@H]2C(=O)\C=C/4[C@@H]5C[C@](C)(CC[C@]5(C)CC[C@@]34C)C(O)=O [Enoxolone] (top concentration 46.0829 µM) | 98.3% | 57.4% | 565 | 505 |
| NCCCCCC(=O)O [Aminocaproic acid] (top concentration 46.0829 µM) | 95.9% | 120% | 518 | 603 |
| O=C1Nc2cc(Br)ccc2/C1=C1/Nc2ccccc2/C1=N\O [BIO] (top concentration 46.0829 µM) | 15.3% | 2.33% | 474 | 407 |
| CCC(=O)NCC[C@@H]1CCc2ccc3c(c21)CCO3 [Ramelteon] (top concentration 46.0829 µM) | 59.9% | 48% | 563 | 510 |
| O=C(NCCCCN1CCOCC1)c1cc2ccccc2o1 (top concentration 46.0829 µM) | 101% | 62% | 482 | 461 |
| O=C(CCCCCCC(=O)Nc1ccc([C@H]2O[C@@H](CSc3nc(-c4ccccc4)c(-c4ccccc4)o3)C[C@@H](c3ccc(CO)cc3)O2)cc1)NO [Tubacin] (top concentration 46.0829 µM) | 5.55% | 23.2% | 488 | 483 |
| Cc1c(C(=O)c2cccc3ccccc23)c2cccc3c2n1[C@H](CN1CCOCC1)CO3 (top concentration 46.0829 µM) | 9.12% | 4.11% | 323 | 441 |
| C/C=C/C[C@@H](C)C(=O)[C@H]1C(=O)N[C@@H](C(C)C)C(=O)N(C)CC(=O)N(C)[C@@H](CC(C)C)C(=O)N[C@@H](C(C)C)C(=O)N(C)[C@@H](CC(C)C)C(=O)N[C@@H](C)C(=O)N[C@H](C)C(=O)N(C)[C@@H](CC(C)C)C(=O)N(C)[C@@H](CC(C)C)C(=O)N(C)[C@@H](C(C)C)C(=O)N1C [Valspodar] (top concentration 46.0829 µM) | 35.1% | 37.4% | 475 | 393 |
| CCOC(=O)[C@H](CCc1ccccc1)N[C@@H](C)C(=O)N1CCC[C@H]1C(=O)O [Enalapril maleate] (top concentration 46.0829 µM) | 82.3% | 73% | 577 | 504 |
| O=C1c2c(O)ccc(O)c2C(=O)c2c(NCCNCCO)ccc(NCCNCCO)c21 [Mitoxantrone] (top concentration 46.0829 µM) | 20.4% | 2.34% | 402 | 263 |
| NCCCCNCCCN [Spermidine] (top concentration 46.0829 µM) | 12.4% | 47.6% | 538 | 493 |
| CN(C)c1ccc2nc3ccc(N(C)C)cc3[s+]c2c1 [Methylene blue] (top concentration 46.0829 µM) | 9.08% | 4.3% | 402 | 384 |
| COCCOc1nc(-c2ccc(Cl)c(Cl)c2)n(-c2ccc(NC(=O)CCl)cc2)n1 [MI-2] (top concentration 46.0829 µM) | 59.3% | 35.3% | 460 | 474 |
| CCC[C@@H]1C[C@@H](C(=O)N[C@@H]([C@H]2O[C@H](SC)[C@H](O)[C@@H](O)[C@H]2O)[C@@H](C)O)N(C)C1.Cl [Lincomycin  hydrochloride] (top concentration 46.0829 µM) | 94% | 85.3% | 548 | 525 |
| Nc1ncnc2c1ncn2[C@@H]1O[C@H](CO)[C@@H](O)[C@H]1O [Adenosine] (top concentration 46.0829 µM) | 8.07% | 48.9% | 454 | 451 |
| CN(C)CCOc1ccc(-c2nc(-c3ccncc3)c(-c3ccc4c(c3)CC/C4=N\O)[nH]2)cc1 (top concentration 46.0829 µM) | 25.4% | 3.84% | 474 | 496 |
| C=CCc1ccc(O)c(-c2ccc(O)c(CC=C)c2)c1 [Honokiol] (top concentration 46.0829 µM) | 79.4% | 30.6% | 519 | 441 |

| Structure (SMILES) | viability (SB.msgc-1 [1]) | viability (SB.mhdgc-1 [2]) | area under the dose-response curve (SB.msgc-1 [3]) | area under the dose-response curve (SB.mhdgc-1 [4]) |
| --- | --- | --- | --- | --- |
| Cc1cn([C@@H]2O[C@H](CO)[C@@H](O)[C@@H]2F)c(=O)[nH]c1=O [Clevudine] (top concentration 46.0829 µM) | 111% | 105% | 531 | 541 |
| Nc1ccn([C@H]2CS[C@@H](CO)O2)c(=O)n1 [Lamivudine] (top concentration 92.1659 µM) | 104% | 73.8% | 516 | 458 |
| COc1cc(Nc2ncc(F)c(Nc3ccc4c(n3)NC(=O)C(C)(C)O4)n2)cc(OC)c1OC [R406] (top concentration 46.0829 µM) | 42% | 49.5% | 491 | 477 |
| Cc1cn2c(-c3cn[nH]c3)cnc2c(Nc2ccc(C(=O)N3CCNCC3)cc2F)n1 (top concentration 46.0829 µM) | 40% | 17.9% | 516 | 339 |
| Cc1cccc(CN2CCN(C(c3ccccc3)c3ccc(Cl)cc3)CC2)c1 (stereo not given) [Meclizine hydrochloride] (top concentration 46.0829 µM) | 41.1% | 28.8% | 468 | 505 |
| CN(Cc1cnc2nc(N)nc(N)c2n1)c1ccc(C(=O)N[C@@H](CCC(=O)O)C(=O)O)cc1 [Methotrexate] (top concentration 46.0829 µM) | 37.8% | 61.7% | 348 | 440 |
| CN1CCC(=C2c3ccccc3CCc3sccc32)CC1 [Pizotifen] (top concentration 46.0829 µM) | 100% | 66.1% | 560 | 588 |
| Cc1ncc([N+](=O)[O-])n1CCO [Metronidazole] (top concentration 46.0829 µM) | 115% | 98.6% | 522 | 483 |
| CO[C@@]12[C@H](COC(N)=O)C/3=C(N1C[C@@H]4N[C@H]24)/C(=O)/C(=C(N)\C3=O)C [Mitomycin] (top concentration 46.0829 µM) | 42.1% | 12.4% | 362 | 199 |
| CCCCCCCCc1ccc(CCC(N)(CO)CO)cc1 [Fingolimod hydrochloride] (top concentration 46.0829 µM) | 0.854% | 1.7% | 489 | 469 |
| CC(C(=O)O)c1ccc(-c2ccccc2)c(F)c1 (stereo not given) [Flurbiprofen] (top concentration 46.0829 µM) | 32.6% | 31.8% | 363 | 438 |
| Cc1c(C(=O)Nc2ccc(N3C[C@@H](C)O[C@@H](C)C3)nc2)cccc1-c1ccc(OC(F)(F)F)cc1 [NVP-LDE-225] (top concentration 46.0829 µM) | 40.3% | 43.9% | 488 | 479 |
| CCOC(=O)C(C)OC1=CC=CC2=C1\C=C/N(CC(=O)NC3=CC=C4OCCOC4=C3)C2=O (stereo not given) (top concentration 46.0829 µM) | 28.1% | 111% | 273 | 564 |
| NC(=O)Nc1sc(-c2ccc(F)cc2)cc1C(N)=O [TPCA-1] (top concentration 46.0829 µM) | 48.3% | 3.19% | 446 | 298 |
| COCC(=O)NC/C=C/c1ccc2ncnc(Nc3ccc(Oc4ccc(C)nc4)c(C)c3)c2c1 (top concentration 46.0829 µM) | 33.4% | 59.7% | 345 | 484 |
| O=C(O)CCNC(=O)c1ccc(/N=N/c2ccc(O)c(C(=O)O)c2)cc1 [Balsalazide disodium] (top concentration 46.0829 µM) | 32.7% | 50.6% | 501 | 487 |
| CC(C)c1ccccc1Cc1cc(C(=O)Nc2ccc([S+](=O)([O-])c3ccccc3C(C)(C)C)cc2)c(O)c(O)c1O [TW-37] (top concentration 46.0829 µM) | 22.5% | 24.2% | 481 | 498 |
